Patent US20230233569A1 (Revolution Medicines, Inc., priority 2020, published 2023)
Several values for one entry are separate records, joined by “and”; a condition that tells them apart may be missing. Equal entries are not always repeated. Where two headings read alike, the source gives them in different places.

Columns and labels:
[1] = tested on: K-Ras G12C (NCI-H358 cells); assay: Potency assay: pERK (AlphaLISA SureFire or In-Cell Western); type: cell-based; conditions: Homo sapiens
Experimental: (§1) The purpose of this assay is to measure the ability of test compounds to inhibit K-Ras in cells. […] This procedure measures a decrease in cellular pERK in response to test compounds.
(§2) NCI-H358 cells were grown and maintained using media and procedures recommended by the ATCC. On the day prior to compound addition, cells were plated in 384-well cell culture plates (40 μl/well) and grown overnight in a 37° C., 5% CO2 incubator. Test compounds were prepared in 10, 3-fold dilutions in DMSO, with a high concentration of 10 mM. On the day of assay, 40 nL of test compound was added to each well of cell culture plate using an Echo550 liquid handler (LabCyte®). Concentrations of test compound were tested in duplicate. After compound addition, cells were incubated 4 hours at 37° C., 5% CO2. Following incubation, culture medium was removed and cells were washed once with phosphate buffered saline.
(§3) In some experiments, cellular pERK level was determined using the AlphaLISA SureFire Ultra p-ERK1/2 Assay Kit (PerkinElmer). Cells were lysed in 25 μL lysis buffer, with shaking at 600 RPM at room temperature. […] After a 2-hour incubation in the dark, 5 μL donor mix was added, plate was sealed, and incubated 2 hours at room temperature. Signal was read on an Envision plate reader (PerkinElmer) using standard AlphaLISA settings. Analysis of raw data was carried out in Excel (Microsoft) and Prism (GraphPad). Signal was plotted vs. the decadal logarithm of compound concentration, and IC50 was determined by fitting a 4-parameter sigmoidal concentration response model.
In other experiments, cellular pERK was determined by In-Cell Western. […] Fixed cells were washed 4 times for 5 minutes with TBS containing 0.1% Triton X-100 (TBST) and then blocked with 100 μL Odyssey blocking buffer (LI-COR) for 60 minutes at room temperature. […] Cells were washed 4 times for 5 minutes with TBST. Secondary antibody (IR-800CW rabbit, LI-COR, diluted 1:800) and DNA stain DRAQ5 (LI-COR, diluted 1:2000) were added and incubated 1-2 hours at room temperature. Cells were washed 4 times for 5 minutes with TBST. Plates were scanned on a LI-COR Odyssey CLx Imager. Analysis of raw data was carried out in Excel (Microsoft) and Prism (GraphPad). Signal was plotted vs. the decadal logarithm of compound concentration, and IC50 was determined by fitting a 4-parameter sigmoidal concentration response model.
as §1
as §2, with “mM. On day of” for “mM. On the day of”, “assay, 40 nl of test” for “assay, 40 nL of test”
as §3, with “μl” for “μL”, “sealed” for “sealed,”

[2] = molecular target: KRAS G12C (Homo sapiens, UniProt P01116+P62937, G12C); assay: Disruption of BRAF RBD interaction with Ras (FRET / MOA assay, with Cyclophilin A); type: biochemical; conditions: KRAS G12C; read-out: KRAS G12C FRET data IC50
KRAS G12C, sequence (P01116 1-169 isoform P01116-2 G12C): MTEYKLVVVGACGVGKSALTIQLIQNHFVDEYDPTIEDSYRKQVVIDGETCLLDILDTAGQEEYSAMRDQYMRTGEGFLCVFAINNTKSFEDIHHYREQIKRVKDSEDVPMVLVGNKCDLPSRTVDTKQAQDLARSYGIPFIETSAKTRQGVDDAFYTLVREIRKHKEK
KRAS G12C, sequence (P62937 whole entry): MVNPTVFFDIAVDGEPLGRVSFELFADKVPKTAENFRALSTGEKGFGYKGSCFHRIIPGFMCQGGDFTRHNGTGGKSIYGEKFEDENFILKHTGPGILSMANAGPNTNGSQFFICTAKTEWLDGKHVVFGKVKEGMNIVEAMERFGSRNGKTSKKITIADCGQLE
Procedure, shortened: (§4)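 TR-FRET readout: a drop in ratio relative to DMSO wells marks disruption of the K-Ras:BRAF RBD complex via compound-induced K-Ras–Cyclophilin A ternary complex. Dosing used ten 3-fold steps from 30 μM final, 3 h at 25 °C, then Eu-anti-His 10 nM plus APC-anti-GST 50 nM for another 1.5 h. Values are IC50s.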

[3] = molecular target: KRAS G12D (Homo sapiens, UniProt P01116+P62937, G12D); assay: as above; type: biochemical; conditions: read-out: KRAS G12D FRET data, IC50
KRAS G12D, sequence (P01116 1-169 isoform P01116-2 G12D limits assumed): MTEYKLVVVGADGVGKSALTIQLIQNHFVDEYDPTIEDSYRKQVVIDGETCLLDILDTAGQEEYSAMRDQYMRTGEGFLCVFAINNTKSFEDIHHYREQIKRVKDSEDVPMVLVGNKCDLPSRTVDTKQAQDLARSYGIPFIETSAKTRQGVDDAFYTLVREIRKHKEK
KRAS G12D, sequence (P62937 whole entry): as the sequence (P62937 whole entry) above
Procedure, shortened: as §4

[4] = molecular target: KRAS G12S (Homo sapiens, UniProt P01116+P62937, G12S); assay: as above; type: biochemical; conditions: read-out: KRAS G12S FRET data, IC50
KRAS G12S, sequence (P01116 1-169 isoform P01116-2 G12S limits assumed): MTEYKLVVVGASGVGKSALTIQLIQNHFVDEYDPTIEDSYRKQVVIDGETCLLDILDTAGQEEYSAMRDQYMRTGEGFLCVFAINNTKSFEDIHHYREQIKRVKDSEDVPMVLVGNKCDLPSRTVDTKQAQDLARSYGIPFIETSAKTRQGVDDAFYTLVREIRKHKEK
KRAS G12S, sequence (P62937 whole entry): as the sequence (P62937 whole entry) above
Procedure, shortened: as §4

[5] = molecular target: KRAS G12V (Homo sapiens, UniProt P01116+P62937, G12V); assay: as above; type: biochemical; conditions: KRAS G12V; read-out: KRAS G12V FRET data IC50
KRAS G12V, sequence (P01116 1-169 isoform P01116-2 G12V limits assumed): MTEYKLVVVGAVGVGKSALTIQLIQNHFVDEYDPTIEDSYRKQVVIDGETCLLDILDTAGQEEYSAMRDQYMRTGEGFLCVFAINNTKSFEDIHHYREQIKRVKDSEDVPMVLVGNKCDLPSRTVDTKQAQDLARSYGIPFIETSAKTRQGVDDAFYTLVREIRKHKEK
KRAS G12V, sequence (P62937 whole entry): as the sequence (P62937 whole entry) above
Procedure, shortened: as §4

[6] = molecular target: KRAS G13C (Homo sapiens, UniProt P01116+P62937, G13C); assay: as above; type: biochemical; conditions: KRAS G13C; read-out: KRAS G13C FRET data IC50
KRAS G13C, sequence (P01116 1-169 isoform P01116-2 G13C): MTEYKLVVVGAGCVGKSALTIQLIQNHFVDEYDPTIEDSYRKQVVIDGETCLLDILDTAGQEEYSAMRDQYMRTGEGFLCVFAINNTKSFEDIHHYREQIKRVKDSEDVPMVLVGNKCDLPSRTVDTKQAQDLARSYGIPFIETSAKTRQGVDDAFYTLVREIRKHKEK
KRAS G13C, sequence (P62937 whole entry): as the sequence (P62937 whole entry) above
Procedure, shortened: as §4

[7] = molecular target: KRAS G13D (Homo sapiens, UniProt P01116+P62937, G13D); assay: as above; type: biochemical; conditions: KRAS G13D; read-out: KRAS G13D FRET data IC50
KRAS G13D, sequence (P01116 1-169 isoform P01116-2 G13D limits assumed): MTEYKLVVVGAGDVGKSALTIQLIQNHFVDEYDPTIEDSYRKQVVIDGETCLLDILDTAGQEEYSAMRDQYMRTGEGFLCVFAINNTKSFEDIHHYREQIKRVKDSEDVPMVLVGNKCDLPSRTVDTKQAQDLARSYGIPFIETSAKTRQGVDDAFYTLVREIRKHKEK
KRAS G13D, sequence (P62937 whole entry): as the sequence (P62937 whole entry) above
Procedure, shortened: as §4

[8] = molecular target: KRAS WT (Homo sapiens, UniProt P01116+P62937); assay: as above; type: biochemical; conditions: KRAS WT; read-out: KRAS WT FRET data IC50
KRAS WT, sequence (P01116 1-169 isoform P01116-2 limits assumed): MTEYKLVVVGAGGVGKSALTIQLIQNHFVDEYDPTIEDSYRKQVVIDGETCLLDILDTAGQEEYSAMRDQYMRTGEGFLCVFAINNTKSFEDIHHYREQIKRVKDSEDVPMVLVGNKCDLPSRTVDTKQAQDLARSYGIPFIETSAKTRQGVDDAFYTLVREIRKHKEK
KRAS WT, sequence (P62937 whole entry): as the sequence (P62937 whole entry) above
Procedure, shortened: as §4

[9] = molecular target: NRAS G12C (Homo sapiens, UniProt P01111+P62937, G12C); assay: as above; type: biochemical; conditions: NRAS G12C; read-out: NRAS G12C FRET data IC50
NRAS G12C, sequence (P01111 whole entry G12C): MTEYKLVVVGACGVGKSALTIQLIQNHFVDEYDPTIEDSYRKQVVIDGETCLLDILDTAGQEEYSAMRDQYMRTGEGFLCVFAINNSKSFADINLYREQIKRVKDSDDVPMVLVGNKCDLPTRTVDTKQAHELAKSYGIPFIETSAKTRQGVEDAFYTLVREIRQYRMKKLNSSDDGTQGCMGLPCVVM
NRAS G12C, sequence (P62937 whole entry): as the sequence (P62937 whole entry) above

[10] = tested on: NCI-H358 (K-Ras G12C); assay: CellTiter-Glo cell viability assay, 5-day treatment; type: cell-based; conditions: Homo sapiens
Procedure, shortened: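 Luminescence read-out after 5 days of compound exposure, with plates first brought to room temperature for roughly 30 minutes. Values are percent of averaged DMSO wells, fitted by four-parameter logistic regression.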

[11] = NCI-H358, H358 KRAS G12C, read-out: pERK EC50
[12] = NCI-H358, H358, K-Ras G12C, read-out: Additional H358 Cell Viability assay data (K-Ras G12C, IC50)

| EC50 [1, 11] | IC50 [2] | IC50 [3] | IC50 [4] | IC50 [5] | IC50 [6] | IC50 [7] | IC50 [8] | IC50 [9] | IC50 [10, 12] | EC50 ([1]; NCI-H358, read-out: pERK EC50) | IC50 ([10]; NCI-H358, read-out: Additional H358 Cell Viability assay data (K-Ras G12C, IC50, uM), H358, K-Ras G12C) | Compound |
| --- | --- | --- | --- | --- | --- | --- | --- | --- | --- | --- | --- | --- |
| < 5000 nM | 10 to 100 nM | 1000 to 10000 nM | > 10000 nM | > 10000 nM | 1000 to 10000 nM | 1000 to 10000 nM | > 10000 nM | 100 to 1000 nM | 0.01 to 0.1 µM |  |  | CCn1c(-c2cccnc2COC)c2c3cc(ccc31)-c1cc(O)cc(c1)C[C@H](NC(=O)[C@@H](C(C)C)N(C)C(=O)[C@H]1CCN(C(=O)C#CCN(C)C)C1)C(=O)N1CCC[C@H](N1)C(=O)OCC(C)(C)C2 [Example A156] |
| < 5000 nM | 100 to 1000 nM and 1000 to 10000 nM | > 10000 nM | 1000 to 10000 nM and > 10000 nM | 1000 to 10000 nM and > 10000 nM | 1000 to 10000 nM and > 10000 nM | 1000 to 10000 nM and > 10000 nM | 1000 to 10000 nM and > 10000 nM | 100 to 1000 nM and 1000 to 10000 nM |  |  |  | C=CC(=O)N1CC[C@H](C(=O)N(C)[C@H](C(=O)N[C@H]2Cc3cc(O)cc(c3)-c3ccc4c(c3)c(c(-c3ccc5c(c3)CN(C)C5)n4CC)CC(C)(C)COC(=O)[C@@H]3CCCN(N3)C2=O)C(C)C)C1 [Example A212] |
| < 5000 nM | 1 µM to 10 µM and > 10 µM (2×) | > 10000 nM | > 10000 nM | > 10000 nM | 1 µM to 10 µM and > 10 µM (2×) | > 10000 nM | > 10000 nM | 1 µM to 10 µM and > 10 µM (2×) |  |  |  | C=CC(=O)N1CCC(C(=O)N(C)C(C(=O)NC2Cc3nc(cs3)-c3ccc4c(c3)c(c(-c3cccnc3C(C)OC)n4CC)CC(C)(C)COC(=O)C3CCCN(N3)C2=O)C(C)C)C1 (centres unmarked) [Example A279] |
| < 5000 nM |  |  |  |  |  |  |  | < 10 nM | < 0.01 µM |  |  | CCn1c(-c2cccnc2[C@H](C)OC)c2c3cc(ccc31)-c1cccc(c1)C[C@H](NC(=O)[C@H](C(C)C)N(C)C(=O)[C@H]1CCN(C(=O)C#C[C@@H]3CCO3)C1)C(=O)N1CCC[C@H](N1)C(=O)OCC(C)(C)C2 [Example A509] |
| < 5000 nM |  |  |  |  |  |  |  |  | < 0.01 µM |  |  | CCn1c(-c2cccnc2[C@H](C)OC)c2c3cc(ccc31)-c1cccc(c1)C[C@H](NC(=O)[C@H](C(C)C)N1CC[C@@]3(CCN(C(=O)C#C[C@@H]4COCCN4C4COC4)C3)C1=O)C(=O)N1CCC[C@H](N1)C(=O)OCC(C)(C)C2 [Example A566] |

Continued, compound first:

| Compound | EC50 [1, 11] | IC50 [2] | IC50 [3] | IC50 [4] | IC50 [5] | IC50 [6] | IC50 [7] | IC50 [8] | IC50 [9] | IC50 [10, 12] | EC50 ([1]; NCI-H358, read-out: pERK EC50) | IC50 ([10]; NCI-H358, read-out: Additional H358 Cell Viability assay data (K-Ras G12C, IC50, uM), H358, K-Ras G12C) |
| --- | --- | --- | --- | --- | --- | --- | --- | --- | --- | --- | --- | --- |
| C=CC(=O)N1CC(OC[C@H](C(=O)N[C@H]2Cc3cccc(c3)-c3ccc4c(c3)c(c(-c3cccnc3[C@H](C)OC)n4CC)CC(C)(C)COC(=O)[C@@H]3CCCN(N3)C2=O)C(C)C)C1 (racemic) [Example A483] | < 5000 nM | 100 to 1000 nM | > 10000 nM | > 10000 nM | 1000 to 10000 nM | 1000 to 10000 nM | > 10000 nM | 1000 to 10000 nM | 100 to 1000 nM |  |  |  |
| C=CC(=O)N1CC[C@H](C(=O)N(C)[C@H](C(=O)N[C@H]2Cc3cc(O)cc(c3)-c3ccc4c(C(C)(C)C#N)c(-c5ccccc5CCOC)n(c4c3)CC(C)(C)COC(=O)[C@@H]3CCCN(N3)C2=O)C(C)C)C1 [Example A12] | < 5000 nM |  |  |  |  |  |  |  |  |  |  |  |
| C=CC(=O)N1CC[C@H](C(=O)N(C)[C@H](C(=O)N[C@H]2Cc3cccc(c3)-c3ccc4c(c3)c(c(-c3cccnc3COC)n4CC)CC(C)(C)COC(=O)[C@@H]3CCCN(N3)C2=O)C(C)C)C1 [Example A65] | < 5000 nM |  |  |  |  |  |  |  |  | 0.1 to 1 µM |  |  |
| CCn1c(-c2cncnc2)c2c3cc(ccc31)-c1cc(O)cc(c1)C[C@H](NC(=O)[C@H](C(C)C)N(C)C(=O)[C@H]1CCN(C(=O)C#CCN(C)C)C1)C(=O)N1CCC[C@H](N1)C(=O)OCC(C)(C)C2 [Example A108] | < 5000 nM | < 10 nM | 1000 to 10000 nM | 1000 to 10000 nM | 1000 to 10000 nM | 10 to 100 nM | 1000 to 10000 nM | 1000 to 10000 nM | < 10 nM | < 0.01 µM |  |  |
| C=CC(=O)N1CC[C@H](C(=O)N(C)[C@H](C(=O)N[C@H]2Cc3cc(O)cc(c3)-c3ccc4c(c3)c(c(-c3cc(CN(C)C)cnc3COC)n4CC)CC(C)(C)COC(=O)[C@@H]3CCCN(N3)C2=O)C(C)C)C1 [Example A149] | < 5000 nM | 10 to 100 nM | 1000 to 10000 nM | 100 to 1000 nM | 100 to 1000 nM | 100 to 1000 nM | 100 to 1000 nM | 100 to 1000 nM | 10 to 100 nM | 0.01 to 0.1 µM |  |  |
| C=CC(=O)N1CC[C@H](C(=O)N(C)[C@H](C(=O)N[C@H]2Cc3cc(O)cc(c3)-c3ccc4c(c3)c(c(-c3cnn(C)c3[C@H](C)OC)n4CC)CC(C)(C)COC(=O)[C@@H]3CCCN(N3)C2=O)C(C)C)C1 [Example A166] | < 5000 nM |  |  |  |  |  |  |  |  |  |  |  |
| CC#CC(=O)N1CC[C@H](C(=O)N(C)[C@@H](C(=O)N[C@H]2Cc3cc(O)cc(c3)-c3ccc4c(c3)c(c(-c3cccnc3[C@H](C)OC)n4CC)CC(C)(C)COC(=O)[C@@H]3CCCN(N3)C2=O)C(C)C)C1 [Example A199] |  |  |  |  |  |  |  |  |  |  | < 5000 nM | 0.1 to 1 µM |
| C=CC(=O)N1CC[C@]2(CCN([C@H](C(=O)N[C@H]3Cc4cc(O)cc(c4)-c4ccc5c(c4)c(c(-c4ccccc4CCOC)n5CC)CC(C)(C)COC(=O)[C@@H]4CCCN(N4)C3=O)C(C)C)C2=O)C1 [Example A216] | < 5000 nM | 100 to 1000 nM and 1000 to 10000 nM | > 10000 nM | 1000 to 10000 nM and > 10000 nM | 1000 to 10000 nM and > 10000 nM | 100 to 1000 nM and > 10000 nM |  | 1000 to 10000 nM and > 10000 nM |  |  |  |  |
| CCn1c(-c2cccnc2[C@H](C)OC)c2c3cc(ccc31)-c1cccc(n1)C[C@H](NC(=O)[C@H](C(C)C)N1CC[C@@]3(CCN(C(=O)C#C[C@@H]4COCCN4C)C3)C1)C(=O)N1CCC[C@H](N1)C(=O)OCC(C)(C)C2 [Example A549] | < 5000 nM |  |  |  |  |  |  |  |  | < 0.01 µM |  |  |
